Reference: patent US20150141523A1, “COMPOUNDS FOR USE IN THE TREATMENT OF AUTOIMMUNE INFLAMMATORY DISEASE” (Venantius Limited, priority 2012, published 2015)

Experiments:
[1] = tested on: IL-2 secretion from Jurkat T cells; assay: IL-2 secretion from activated Jurkat T cells (ELISA); type: cell-based, human; details: for IL-2 [ ]pg/ml (1) / IL-2 % Control (1): experiment (1); for IL-2 % Control (1) / IL-2 % Control (2) / IL-2 % Control (3): relative to DMSO 0.1%; for IL-2 [ ]pg/ml (2) / IL-2 % Control (2): experiment (2); for IL-2 [ ]pg/ml (3) / IL-2 % Control (3): experiment (3)
Procedure: The T cell line Jurkat 6.1 (ATCC) was used. Cells were pre-treated for 30 min with 1 μM or 10 μM of the respective compound and then stimulated with plate-bound anti-CD3 (BD Pharmingen) and anti-CD28 (AnCell). DMSO was used as vehicle control. The immunosuppressive agent Cyclosporine A was used as a control for inhibition of IL-2 production. After 24 hs the supernatant was collected and IL-2 secretion was measured by ELISA.
Jurkat T cells were cultured in RMPI-1640 medium containing 10 % Foetal Bovine Serum, Penicillin/Streptomycin and L-Glutamine in T-75cm2 flasks at 37° C. and 5 % CO2. Cells were seeded into new culture flasks at a density of 1-3×10^5 cells per ml and maintained at a density of 0.5−1×10^6 cells per ml.
(§1) (A) Anti-TCR/CD28-mediated activation of Jurkat cells: Experiments involving anti-TCR/CD28-mediated activation of Jurkat T lymphocytes were carried out on 24-well cell culture plates. The plates were coated with a 1/100 dilution of rabbit anti-mouse IgG in sterile PBS (1×) and incubated overnight at 4OC. Unbound antibody was aspirated and the wells were gently rinsed with warm sterile PBS. The PBS was aspirated and the wells were coated with a 1/100 dilution of anti-TCR antibody (OKT-3) and a 1/200 dilution of anti-CD28 antibody (both antibodies pre-mixed prior to addition to the plates) in sterile PBS. The plates were then incubated for 1-2 hours at 37° C. Unbound antibody was aspirated and the wells were gently rinsed with warm PBS. The PBS was left on the plate until the Jurkat cells were ready to be added to the plate. The Jurkat cells were harvested from the T-75cm2 cell culture flasks and resuspended at a density of 0.5×10^6 cells per ml. The compounds were dissolved at a specified stock concentration (see results section) and diluted to the required concentration by adding the drug to the cell suspension. The cells were then pre-incubated with the compounds or with an equivalent volume of drug vehicle control (DMSO) for 30 minutes prior to adding the cell suspension to the antibody-coated plates. Cyclosporine A (1 μM) was used as a positive control to inhibit IL-2 production from activated T cells and was preincubated with the 6 cells as described above in parallel. The cells were then incubated on the plates with the acti-TCR/CD28 antibodies for 24 hours at 37° C. and 5% CO2 in a humidified atmosphere. After 24 hours, the cell suspension was removed from the plates and the cells were pelleted by centrifugation. The cell culture supernatant was saved and analysed for secreted IL-2 by ELISA. The cell pellet was saved and cell viability was measured using Acridine Orange/Ethidium Bromide cell viability staining solution.
(B) PHA/PMA-mediated activation of Jurkat cells Jurkat cells were resuspended at a concentration of 0.5×10^6 cells per ml and the Pharmatrin compounds at the desired concentration or an equivalent volume of drug vehicle control (DMSO) were added to the cells and incubated for 30 minutes. Cyclosporine A (1 ∝M) was used as a positive control to inhibit IL-2 production from activated T cells and was preincubated with the cells as described above in parallel. PHA and PMA were added to the cell suspension (10 ∝g/ml and 10 ng/ml respectively) and the cells were plated onto uncoated 24-well plates. The cells were incubated on the plates for 24 hours at 37° C. and 5 % CO2 in a humidified atmosphere. After 24 hours, the cell suspension was removed from the plates and the cells were pelleted by centrifugation. The cell culture supernatant was saved and analysed for secreted IL-2 by ELISA.
The cell culture supernatants were analysed for IL-2 by ELISA (96-well plate format) using the Human IL-2 ELISA kit from R&D Systems Europe. This assay was carried out using the standard protocol outlined by the company. Samples and standards (recombinant human IL-2 provided by R&D Systems) were analysed in triplicate. […]

Balb/C mice = assay: 5% DSS-induced murine colitis model; type: in vivo, mouse
Jurkat cells = assay: Jurkat cell viability (Acridine Orange/Ethidium Bromide); type: cell-based
Procedure: as §1
The cell pellet was resuspended in 20 μl of Acridine Orange/Ethidium Bromide staining solution. A portion of this cell suspension was placed on a haemocytometer and analysed under a fluorescence microscope. […] The ratio of viable cells: non-viable cells were calculated for each activation time point/drug treatment.

Row | Compound | IL-2 [ ]pg/ml (1) ([1]; 0.3 uM) [pg/mL] | IL-2 % Control (1) ([1]; 0.3 uM) [%] | IL-2 [ ]pg/ml (2) ([1]; 0.3 uM) [pg/mL] | IL-2 % Control (2) ([1]; 0.3 uM) [%] | IL-2 [ ]pg/ml (3) ([1]; 0.3 uM) [pg/mL] | IL-2 % Control (3) ([1]; 0.3 uM) [%] | IL-2 [ ]pg/ml (1) ([1]; 1 uM) [pg/mL] | IL-2 % Control (1) ([1]; 1 uM) [%] | IL-2 [ ]pg/ml (2) ([1]; 1 uM) [pg/mL] | IL-2 % Control (2) ([1]; 1 uM) [%] | IL-2 [ ]pg/ml (3) ([1]; 1 uM) [pg/mL] | IL-2 % Control (3) ([1]; 1 uM) [%] | IL-2 [ ]pg/ml (1) ([1]; 3 uM) [pg/mL] | IL-2 % Control (1) ([1]; 3 uM) [%] | IL-2 [ ]pg/ml (2) ([1]; 3 uM) [pg/mL] | IL-2 % Control (2) ([1]; 3 uM) [%] | IL-2 [ ]pg/ml (3) ([1]; 3 uM) [pg/mL] | IL-2 % Control (3) ([1]; 3 uM) [%] | IL-2 [ ]pg/ml (1) ([1]; 10 uM) [pg/mL] | IL-2 % Control (1) ([1]; 10 uM) [%] | further results
1 | O[C@@H]1c2ccccc2C[C@@]1(Cc1ccccc1)C1=Cc2ccccc2C1 (single isomer, unassigned) [Compound 10] | 79.17 | 108.41 | 88.15 | 134.99 | 58.63 | 44.56 | 64.17 | 87.87 | 57.50 | 88.06 | 104.44 | 79.39 | 71.39 | 97.76 | 54.15 | 82.92 | 100.50 | 76.39 | 42.50 | 58.20 | IL-2 [ ]pg/ml (2) ([1]; 10 uM): 45.60 pg/mL; IL-2 % Control (2) ([1]; 10 uM): 69.83%; IL-2 [ ]pg/ml (3) ([1]; 10 uM): 80.25 pg/mL; IL-2 % Control (3) ([1]; 10 uM): 61.00%; IL-2 [ ]pg/ml (1) ([1]; 30 uM): 14.17 pg/mL; IL-2 % Control (1) ([1]; 30 uM): 19.40%; IL-2 [ ]pg/ml (2) ([1]; 30 uM): 56.70 pg/mL; IL-2 % Control (2) ([1]; 30 uM): 86.83%; IL-2 [ ]pg/ml (3) ([1]; 30 uM): 46.06 pg/mL; IL-2 % Control (3) ([1]; 30 uM): 35.01%; IL-2 [ ]pg/ml (1) ([1]; 100 uM): -11.33 pg/mL; IL-2 % Control (1) ([1]; 100 uM): −15.52%; IL-2 [ ]pg/ml (2) ([1]; 100 uM): -6.30 pg/mL; IL-2 % Control (2) ([1]; 100 uM): −9.65%; IL-2 [ ]pg/ml (3) ([1]; 100 uM): -0.78 pg/mL; IL-2 % Control (3) ([1]; 100 uM): −0.59%; inhibition of DAI in DSS-induced colitis (Balb/C mice; 5% DSS colitis (FIG. 9)): significant (P<0.0059) inhibition; effect on DSS-induced weight loss (Balb/C mice; 5% DSS colitis, 30 mg/kg p.o. (FIG. 8)): ameliorated; disease activity index (DAI) (Balb/C mice; day 7, mean±SEM, vehicle control 6.833±1.276): 2.333±0.211
2 | (R,S or SR)2-Benzyl-2,3-dihydro-1H,1′H-2,2′-biinden-1-ol [Compound 7] | 44.65 | 218.87 | 93.65 | 143.42 | 112.94 | 85.85 | 49.20 | 241.18 | 71.40 | 109.34 | 109.59 | 83.31 | 43.25 | 212.01 | 45.10 | 69.07 | 97.25 | 73.92 | 24.75 | 121.32 | cell viability (Jurkat cells): without affecting cell viability; IL2 release from Jurkat cells [1]: inhibited IL2 release; IL-2 [ ]pg/ml (2) ([1]; 10 uM): 36.75 pg/mL; IL-2 % Control (2) ([1]; 10 uM): 56.28%; IL-2 [ ]pg/ml (3) ([1]; 10 uM): 81.84 pg/mL; IL-2 % Control (3) ([1]; 10 uM): 62.21%; IL-2 [ ]pg/ml (1) ([1]; 30 uM): 10.10 pg/mL; IL-2 % Control (1) ([1]; 30 uM): 49.51%; IL-2 [ ]pg/ml (2) ([1]; 30 uM): 27.80 pg/mL; IL-2 % Control (2) ([1]; 30 uM): 42.57%; IL-2 [ ]pg/ml (3) ([1]; 30 uM): 32.00 pg/mL; IL-2 % Control (3) ([1]; 30 uM): 24.32%; IL-2 [ ]pg/ml (1) ([1]; 100 uM): 1.15 pg/mL; IL-2 % Control (1) ([1]; 100 uM): 5.64%; IL-2 [ ]pg/ml (2) ([1]; 100 uM): -19.30 pg/mL; IL-2 % Control (2) ([1]; 100 uM): −29.56%; IL-2 [ ]pg/ml (3) ([1]; 100 uM): -3.13 pg/mL; IL-2 % Control (3) ([1]; 100 uM): −2.38%
3 | (R,S or SR)2-Benzyl-2,3-dihydro-1H,1′H-2,2′-biinden-1-ol [Compound 8] | 44.20 | 216.67 | 50.10 | 245.59 | 107.03 | 77.39 | 37.95 | 186.03 | 39.65 | 194.36 | 111.75 | 80.81 | 34.45 | 168.87 | 36.00 | 176.47 | 102.92 | 74.42 | 20.15 | 98.77 | cell viability (Jurkat cells): without affecting cell viability; IL2 release from Jurkat cells [1]: inhibited IL2 release; IL-2 [ ]pg/ml (2) ([1]; 10 uM): 25.65 pg/mL; IL-2 % Control (2) ([1]; 10 uM): 125.74%; IL-2 [ ]pg/ml (3) ([1]; 10 uM): 81.78 pg/mL; IL-2 % Control (3) ([1]; 10 uM): 59.13%; IL-2 [ ]pg/ml (1) ([1]; 30 uM): -2.80 pg/mL; IL-2 % Control (1) ([1]; 30 uM): −13.73%; IL-2 [ ]pg/ml (2) ([1]; 30 uM): -3.00 pg/mL; IL-2 % Control (2) ([1]; 30 uM): −14.71%; IL-2 [ ]pg/ml (3) ([1]; 30 uM): 76.25 pg/mL; IL-2 % Control (3) ([1]; 30 uM): 55.14%; IL-2 [ ]pg/ml (1) ([1]; 100 uM): -12.55 pg/mL; IL-2 % Control (1) ([1]; 100 uM): −61.52%; IL-2 [ ]pg/ml (2) ([1]; 100 uM): -12.80 pg/mL; IL-2 % Control (2) ([1]; 100 uM): −62.75%; IL-2 [ ]pg/ml (3) ([1]; 100 uM): 8.11 pg/mL; IL-2 % Control (3) ([1]; 100 uM): 5.87%
